Experimental data reported in patent publication US11944429B2, “Automatically classifying animal behavior” (President and Fellows of Harvard College, priority 2015, dated 2024).

Tested on: mice
Assay: Innate behavioral response to odorant in odor box (3D depth imaging, AR-HMM)
Type: in vivo, mouse

CC1=NC(C)SC1C (stereo not drawn) [TMT]
behavioral response to odor-containing quadrant (TMT delivered to one quadrant of the box via olfactometer): avoided the quadrant containing the predator cue and displayed prolonged periods of immobility
per frame entropy rate with self-transitions (after TMT exposure): 0.64±0.02 bits
per frame entropy rate without self-transitions (after TMT exposure): 3.66±0.08 bits
number of times the most commonly-expressed freezing trigram was expressed (after TMT exposure, in 300 minutes of imaging): 716 times
average during-sequence velocity of freezing sequences (mice in square box, TMT 5% delivered to one quadrant, newly concatenated pausing modules): −0.14±0.54 mm/sec
behavioral modules introduced or eliminated relative to control (n=15 in TMT, n=25 control, model co-trained): no new modules were introduced or eliminated relative to control
